Data reported in patent US9265777B2, “Antiparasitic agent for fish and method of controlling proliferation of fish parasites” (NIPPON SUISAN KAISHA, LTD., priority 2009, dated 2016).

The compounds below were run on Cryptocaryon irritans (assay: Example 1: oral administration against parasitism of Cryptocaryon irritans on Pagrus major (1)). Conditions: 50 mg trimethoprim/kg body weight/day orally for three days; three days after the exposure.
For `COc1cc(Cc2cnc(N)nc2N)cc(OC)c1OC` [TMP, trimethoprim], the “number of parasites (left gills, FIG. 1) relative to control plot” value was “tend to be large”.

These compounds were tested on Cryptocaryon irritans (assay: Examples 3 and 4: oral administration of single inhibitors and a combination against Cryptocaryon irritans on Pagrus major). Conditions: 60 mg/kg fish body weight/day for three days; 60 parasites per plot; P=<0.01.
Assay type: in vivo
Text: During the rearing period, 1.4 liters/min. of seawater was supplied. […] After exposure, seven fish each were moved into six 100-liter aquariums. During the rearing period, 1.4 liters/min. of seawater was supplied.
For `N=C(N)c1ccc(OCCCCCOc2ccc(C(=N)N)cc2)cc1.O=S(=O)(O)CCO.O=S(=O)(O)CCO` [PMD, isethionic acid pentamidine salt], the “growth rate of parasites (body length as percentage of control plot), difference to control plot” value was “statistically significant difference”.
`CN(Cc1cnc2nc(N)nc(N)c2n1)c1ccc(C(=O)N[C@@H](CCC(=O)O)C(=O)O)cc1` [MTX, methotrexate] was tested, and the “growth rate of parasites (body length as percentage of control plot), difference to control plot” value was “statistically significant difference”.
For `COc1cc(Cc2cnc(N)nc2N)cc(OC)c1OC` [TMP, trimethoprim], the “growth rate of parasites (body length as percentage of control plot), difference to control plot” value was “statistically significant difference”.

Same assay, conditions: 300 mg/kg fish body weight/day for three days; 60 parasites per plot; P=<0.01
For `Cc1nnc(NS(=O)(=O)c2ccc(N)cc2)s1` [SMZ, sulfamethizole], the “growth rate of parasites (body length as percentage of control plot), difference to control plot” value was “statistically significant difference”.
With sulfisozole [SIZ] the “growth rate of parasites (body length as percentage of control plot), difference to control plot” value was “statistically significant difference”.
With `Cc1ccnc(NS(=O)(=O)c2ccc(N)cc2)n1` [SMDN, sulfamerazine] the “growth rate of parasites (body length as percentage of control plot), difference to control plot” value was “statistically significant difference”.
In the case of `COc1cc(NS(=O)(=O)c2ccc(N)cc2)ncn1` [SMMX, sulfamonomethoxine], the “growth rate of parasites (body length as percentage of control plot), difference to control plot” value is reported as “statistically significant difference”.
`COc1cc(NS(=O)(=O)c2ccc(N)cc2)nc(OC)n1` [SDMX, sulfadimethoxine] was tested, and the “growth rate of parasites (body length as percentage of control plot), difference to control plot” value was “statistically significant difference”.
`Cc1cc(NS(=O)(=O)c2ccc(N)cc2)nc(C)n1` [SID, sulfisomidine] was tested, and the “growth rate of parasites (body length as percentage of control plot), difference to control plot” value was “statistically significant difference”.
